The values that follow come from ChEMBL document CHEMBL2010711, “Synthesis and comparative evaluation of 4-oxa- and 4-aza-podophyllotoxins as antiproliferative microtubule destabilizing agents” (Bioorg Med Chem Lett, 2012).

One assay relates to A549. The experiment in a line: Cytotoxicity against human A549 cells after 48 hrs by trypan blue dye exclusion assay. It counts as functional. The note with it: A549, 48 h.
The next assay has as its system SN12C. The experiment in a line: Cytotoxicity against human SN12C cells after 48 hrs by trypan blue dye exclusion assay. It counts as functional.
A further assay relates to IGROV-1. The experiment in a line: Cytotoxicity against human IGROV1 cells after 48 hrs by trypan blue dye exclusion assay. In kind it is functional. The note with it: IGROV-1, 48 h.
In a further assay the test system is HCC 2998. The experiment in a line: Cytotoxicity against human HCC2998 cells after 48 hrs by trypan blue dye exclusion assay. The note with it: HCC 2998, 48 h. In kind it is functional.
The next assay concerns MDA-MB-468. The experiment in a line: Cytotoxicity against human MDA-MB-468 cells after 48 hrs by trypan blue dye exclusion assay. It counts as functional. The note with it: MDA-MB-468, 48 h.
The subject of assay [1] is Paracentrotus lividus. The assay is described as follows: Microtubule destabilizing activity in Paracentrotus lividus embryo assessed as embryo spinning at 2 fold less effective threshold concentration after 15 mins to 20 hrs. In kind it is functional, organism-based.
The subject of a further assay is COLO 205. The experiment in a line: Cytotoxicity against human COLO205 cells after 48 hrs by trypan blue dye exclusion assay. The note with it: COLO 205, 48 h. It counts as functional.
Another assay relates to SK-MEL-2. The assay is described as follows: Cytotoxicity against human SK-MEL-2 cells after 48 hrs by trypan blue dye exclusion assay. It counts as functional. The settings on record: SK-MEL-2, 48 h.
A further assay deals with HOP-92. The assay is described as follows: Cytotoxicity against human HOP92 cells after 48 hrs by trypan blue dye exclusion assay. In kind it is functional. The note with it: HOP-92, 48 h.
For a further assay, the system named is NCI-H460. The assay is described as follows: Cytotoxicity against human NCI-H460 cells after 48 hrs by trypan blue dye exclusion assay. It counts as functional. The note with it: NCI-H460, 48 h.
A further assay relates to MDA-MB-435. The assay is described as follows: Cytotoxicity against human MDA-MB-435 cells after 48 hrs by trypan blue dye exclusion assay. It counts as functional. The settings on record: MDA-MB-435, 48 h.
The subject of another assay is ACHN. The experiment in a line: Cytotoxicity against human ACHN cells after 48 hrs by trypan blue dye exclusion assay. It counts as functional.
Another assay relates to U-251. The assay is described as follows: Cytotoxicity against human U251 cells after 48 hrs by trypan blue dye exclusion assay. It counts as functional. The settings on record: U-251, 48 h.
The test system of another assay is SK-MEL-5. The experiment in a line: Cytotoxicity against human SK-MEL-5 cells after 48 hrs by trypan blue dye exclusion assay. In kind it is functional. The settings on record: SK-MEL-5, 48 h.
Assay [2] has as its system Paracentrotus lividus. The assay is described as follows: Microtubule destabilizing activity in Paracentrotus lividus embryo assessed as concentration required to cause 100% embryo spinning after 15 mins to 20 hrs. It counts as functional.

Active and inactive are the calls of the source.

As to `COc1ccc2c(c1)OC1=C(C(=O)OC1)C2c1cc(OC)c2c(c1)OCO2` (stereo unspecified), the concentration for 50% growth inhibition (GI50) (as a rule, the concentration at which growth is held to half of that of the control) was 44.4 nM in the assay on A549; 62.5 nM in the assay with SN12C; 62.4 nM in the assay with IGROV-1; 42.1 nM in the assay on HCC 2998; 26.3 nM with MDA-MB-468; 27.8 nM in the assay on COLO 205. The GI50 in the assay on SK-MEL-2 was 34.3 nM; in the assay with HOP-92, 73000 nM; with NCI-H460 it was 36.6 nM; in the assay with MDA-MB-435, less than 10 nM; in the assay with ACHN, 267 nM; in the assay on U-251, 42.7 nM. The molecule also gave a GI50 with SK-MEL-5 of 36.9 nM. Moreover, the result in the assay on Paracentrotus lividus [1] was inactive. Also, the TGI (usually the concentration giving total growth inhibition) with COLO 205 is 69.2 nM. For the same molecule, the EC with Paracentrotus lividus [2] stood at 100 nM.
